Source: PMC10624628 (2023)

Columns and labels:
[1] = test system: SAMURI / 17-mer substrate RNA (RNA, ribozyme) GGUUGAAGGCAUGGCUCAGGGACUUCGGUCCGCUGCAGUCAGUAUGUCC/ACAUACUGAGCCUUCAA; test: inhibition of SAMURI trans-propargylation, PAGE; details: 120 mM KCl, 5 mM NaCl, 10 mM MgCl2; pH 7.5, 37 °C, 1 h; no competition with 10 µM ProSeDMA up to 1 mM SAM; methylates substrate at 3 mM
[2] = test system: SAMURI / 17-mer substrate RNA (RNA, ribozyme) GGUUGAAGGCAUGGCUCAGGGACUUCGGUCCGCUGCAGUCAGUAUGUCC/ACAUACUGAGCCUUCAA; test: Michaelis-Menten fit of kobs, alkylation of Cy5-labelled substrate, denaturing PAGE; details: 120 mM KCl, 5 mM NaCl, 10 mM MgCl2; 50 mM HEPES, pH 7.5, 37 °C; apparent; 32.6 ± 2.2 µM at 0.5 mM Mg2+; covalent transfer to substrate

| SMILES | binding [1] | Km,app [2] [µM] |
| --- | --- | --- |
| C[S+](CC[C@H](N)C(=O)O)C[C@H]1O[C@@H](n2cnc3c(N)ncnc32)[C@H](O)[C@@H]1O (some centres unmarked) | weak | – |
| C#CC[Se+](CCC(N)C(N)=O)C[C@H]1O[C@@H](n2cnc3c(N)nc(N)nc32)[C@H](O)[C@@H]1O (some centres unmarked) | – | 8.9 ± 1.9 |
